Assay results taken from patent US20080015138A1, “Metal binding compounds, metal binding compositions, and their uses” (AFFINERGY, INC., priority 2006, published 2008).
Square brackets hold non-standard residues; d marks the D form. Ends that are not written are not given here.

Assays:
[1] = Peptide binding assay on titanium beads (streptavidin-AP detection, binding curve EC50)
Method: (§1) Relative binding strengths (affinities) of the peptides to metal, also used as a measure of binding specificity, were determined by testing serial dilutions of the peptide for binding to a target substrate comprising metal, as represented by titanium or steel. Plotting the absorbance observed across the concentration range for each peptide sequence yielded a binding curve of the peptides to its target substrate from which can be determined an EC50 (e.g., the concentration of peptide that gives 50% of the maximum signal in the binding curve is used as an estimate of the affinity of the peptide for the target). Preferred are peptides that bind to the selected target substrate (in this case, metal) with binding specificity, preferably with an EC50 of less than or equal to about 1 μM, and more preferably, in the nanomolar range (e.g., <0.1 μM). […] A typical binding assay for titanium (note, a different substrate may be substituted for titanium in the assay) may be perofrmed according to the following procedure.
(§2) Briefly, 5/32-inch diameter Grade 200 titanium beads were washed by sonication in acetone for 15 minutes, and the beads were allowed to dry. One bead was added to each well of a 96-well polypropylene plate. Two hundred fifty (250) μL of 1% BSA in PBS was added to each well of the plate. The surface of the wells was blocked by incubation for 1 hour at 20° C. with shaking at 500 rpm. The plate was washed three times with 250 μL of buffer-T per well. A 1:3 dilution series of each of the peptides was prepared using PBS as a diluent, starting at a peptide concentration of 20 μM, and going down to 0.0001 μM. A 200 μL sample of each dilution was added to wells of the plate. The plate was incubated for 1 hour at 20° C. with shaking at 500 rpm. The beads were washed three times with 250 μL of buffer-T per well. Two hundred (200) μL of streptavidin-alkaline phosphatase (“streptavidin AP”) reagent, at a dilution of 1:2000 in buffer+1% BSA, was added to each well. The plate was incubated for 30 minutes at room temperature. The beads were washed three times with 250 μL of buffer-T per well. Two hundred (200) μL of color development reagent (PNPP, p-nitrophenol phosphate) was added to each well. After color had developed (10 minutes), the samples were transferred to a clear 96-well plate and the absorbance at 405 nm determined. A binding curve was generated by plotting the absorbance at 405 nm against the peptide concentration (μM).

[2] = Peptide binding assay on stainless steel; details: for binding to stainless steel (in words): biotinylated peptides
Method: as §1, §2
(§3) In this embodiment, illustrated are additional characterizations of the binding specificities of examples of metal binding domains, and peptides containing the metal binding domains, according to the present invention to various substrates, such as metal (as illustrated by stainless steel, zirconium metal alloy […]) versus binding to a polymer (as illustrated by polystyrene). Using the methods illustrated in Example 2, binding specificities for the various substrates were determined; with the results illustrated in Table 6 (Note: “none” means any binding detected was very low, and not above background binding (such as by a control peptide with no binding specificity for metal) in the binding assay; and thus, a binding curve for calculation of an EC50 could not be generated).

[3] = Peptide binding assay on zirconium metal alloy; details: Table 6
Method: as §1, §2, §3

[4] = Peptide binding assay on glass; details: Table 6
Method: as §1, §2, §3

[5] = Peptide binding assay on polymer (polystyrene); details: Table 6, polymer illustrated by polystyrene
Method: as §1, §2, §3

[6] = Table 5, spacing between triplets, biotinylated peptides, binding to titanium, read-out: EC50
[7] = Table 3, substituted peptides labeled with biotin, binding to titanium, read-out: EC50
[8] = Table 4, second-generation peptides, biotinylated at C-terminal lysine, binding to titanium, read-out: EC50
[9] = Table 6, read-out: EC50 (μM) stainless steel

For SKHKGGGKHKGSSGK [SEQ ID NO: 83], the EC50 [1, 6] was 75 nM.
“SHKHPVTPRFFVVESK [SEQ ID NO: 59, Parent]” showed an EC50 [1, 7] of 4000 nM.
In the case of “ssCDQNDIFYTSKKSHKSHCsr ([code s][code s]CDQNDIFYTSKKSHKSHC[code s][code r]; not fully specified; printed as ssCDQNDIFYTSKKSHKSHCsr; cysteine pairing not given here) [SEQ ID NO: 49]”, the “binding to titanium (in words)” value ([1]; biotinylated peptides) is reported as “showed binding” and the “binding to stainless steel (in words)” value [2] is reported as “showed binding”.
With SKKHGGKKHGSSGK [SEQ ID NO: 70] the EC50 [1, 8] was 13 nM, the EC50 [2, 9] was less than 0.1 µM and the EC50 [3] was less than 0.1 µM. The EC50 [4] was less than 0.1 µM and the EC50 [5] was greater than 20 µM.
SHKHPVTPRFFVVKSK [SEQ ID NO: 66] gave an EC50 [1, 7] of 50 nM.
In the case of SHKHPVTPRGGVVESK [SEQ ID NO: 60], the EC50 [1, 7] is reported as 2000 nM.
In the case of SHKHPVTPRFFVVNSK [SEQ ID NO: 69], the EC50 [1, 7] is reported as 800 nM.
SKHKGGKHKGGKHKGSSGK [SEQ ID NO: 79] showed an EC50 [1, 8] of 25 nM, an EC50 ([1]; Table 7, peptide monomer versus branched polymers, binding to titanium, read-out: EC50) of 25 nM and an EC50 [2, 9] of less than 0.05 µM. It also gave an EC50 [3] of less than 0.05 µM, an EC50 [4] of less than 0.05 µM and an EC50 [5] greater than 20 µM.
For SHKHGGHKHGSSGK [SEQ ID NO: 77], the EC50 [1, 8] was 200 nM, the EC50 [2, 9] was less than 1 µM and the EC50 [3] was less than 1 µM. The EC50 [4] was less than 1 µM and the EC50 [5] was greater than 20 µM.
For “ssSDKCHKHWYCYESKYGGSsr ([code s][code s]SDKCHKHWYCYESKYGGS[code s][code r]; cysteine pairing not given here; also: biotinylated (site not given here)) [SEQ ID NO: 51]”, the “binding to titanium (in words)” value ([1]; biotinylated peptides) was “showed binding” and the “binding to stainless steel (in words)” value [2] was “showed binding”.
In the case of SKHKGGKHKGSSGK [SEQ ID NO: 71], the EC50 [1, 8] is reported as 26 nM, the EC50 [1, 6] is reported as 26 nM and the EC50 [2, 9] is reported as less than 0.5 µM. The EC50 [3] was less than 0.1 µM, the EC50 [4] was less than 0.5 µM and the EC50 [5] was greater than 20 µM.
With SHKHPVTPGFFVVESK [SEQ ID NO: 63] the EC50 [1, 7] was greater than 50000 nM.
For “SHHKGGHHKGSSGK- (not fully specified; printed as SHHKGGHHKGSSGK-; also: name ends with '-': unspecified C-terminal conjugate) [SEQ ID NO: 78]”, the EC50 [1, 8] was 500 nM.
SHKHGGHKHGGHKHGSSGK [SEQ ID NO: 72] showed an EC50 [1, 8] of 35 nM, an EC50 [2, 9] of less than 0.1 µM and an EC50 [3] of less than 0.1 µM. The EC50 [4] was less than 0.05 µM and the “EC50 (μM) Polymer” value [5] was “None”.
For SKHKGGGGGKHKGSSGK [SEQ ID NO: 84], the EC50 [1, 6] was 70 nM.
With SKHKKHKGSSGK [SEQ ID NO: 81] the EC50 [1, 6] was 60 nM.
SHKHGGKHKGSSGK [SEQ ID NO: 74] gave an EC50 [1, 8] of 60 nM, an EC50 [2, 9] of less than 0.5 µM and an EC50 [3] of less than 0.1 µM. It also gave an EC50 [4] of less than 0.5 µM and an EC50 [5] greater than 20 µM.
With SHGHGGHGHGSSGK [SEQ ID NO: 80] the EC50 [1, 8] was 4000 nM and the “binding to titanium (in words)” value ([1]; biotinylated peptides) was “comparably poorer binding affinity”.
In the case of SHKHPVTPRFFVVGSK [SEQ ID NO: 68], the EC50 [1, 7] is reported as 600 nM.
SHKHPVTPRFFVVYSK [SEQ ID NO: 65] gave an EC50 [1, 7] of 50 nM.
SKHKGGHKHGSSGK [SEQ ID NO: 73] gave an EC50 [1, 8] of 45 nM, an EC50 [2, 9] of less than 0.5 µM and an EC50 [3] of less than 0.5 µM. It also gave an EC50 [4] of less than 0.5 µM and an EC50 [5] greater than 20 µM.
In the case of SHKHPVTPRGGGGESK [SEQ ID NO: 62], the EC50 [1, 7] is reported as 3000 nM.
With “ssCSHNHHKLTAKHQVAHKCsr ([code s][code s]CSHNHHKLTAKHQVAHKC[code s][code r]; not fully specified; printed as ssCSHNHHKLTAKHQVAHKCsr; cysteine pairing not given here) [SEQ ID NO: 48]” the “binding to titanium (in words)” value ([1]; biotinylated peptides) was “showed binding” and the “binding to stainless steel (in words)” value [2] was “showed binding”.
Substance SHKHGGGGRFFVVESK [SEQ ID NO: 61] has an EC50 [1, 7] of 3000 nM.
In the case of SHKHPVTPRFFVVVSK [SEQ ID NO: 67], the EC50 [1, 7] is reported as 200 nM.
With SHKHGGGGHKHGSSGK [SEQ ID NO: 76] the EC50 [1, 8] was 150 nM.
SGGGPVTPRFFVVESK [SEQ ID NO: 64] showed an EC50 [1, 7] greater than 100000 nM.
In the case of “ssCNCYVTPNLLKHKCYKICsr ([code s][code s]CNCYVTPNLLKHKCYKIC[code s][code r]; not fully specified; printed as ssCNCYVTPNLLKHKCYKICsr; cysteine pairing not given here) [SEQ ID NO: 47]”, the “binding to titanium (in words)” value ([1]; biotinylated peptides, listed as 47) is reported as “showed binding”, the “binding to titanium (in words)” value ([1]; biotinylated peptides, listed as SEQ ID NO:47) is reported as “strongest binding” and the EC50 ([1]; biotinylated phage-derived peptide, text of Example 2, read-out: EC50 on titanium) is reported as roughly 800 nM. The “binding to stainless steel (in words)” value ([2]; listed as 47) was “showed binding”, the “binding to stainless steel (in words)” value ([2]; listed as SEQ ID NO:47) was “strongest binding” and the EC50 ([2]; biotinylated phage-derived peptide, text of Example 2, read-out: EC50 on stainless steel) was roughly 1 µM.
With SKHKGKHKGSSGK [SEQ ID NO: 82] the EC50 [1, 6] was 60 nM.
Substance SKHKGGGGKHKGSSGK [SEQ ID NO: 75] has an EC50 [1, 8] of 110 nM, an EC50 [2, 9] of less than 0.5 µM and an EC50 [3] of less than 0.1 µM. It also gave an EC50 [4] of less than 0.1 µM and an EC50 [5] greater than 20 µM.
